Laboratory results reported in US7829665B2 (priority 2005, dated 2010).
Like-named read-outs stand apart in the source and are kept apart here.

Assays:
[1] = target: T1, full-length NS3/NS4A-2 (HCV NS3 protease) (Hepatitis C virus genotype 1a, UniProt P27958); assay: NS3-NS4 protease assay / NS3 inhibition assay (RETS1 substrate, fluorescence kinetic read); assay type: biochemical
T1 construct: Recombinant E. coli or Baculovirus full-length NS3 was diluted to 3.33 μM with assay buffer; made in house; host or cells: E. coli or baculovirus (BV) expression system
T1 sequence (P27958 1027-1657): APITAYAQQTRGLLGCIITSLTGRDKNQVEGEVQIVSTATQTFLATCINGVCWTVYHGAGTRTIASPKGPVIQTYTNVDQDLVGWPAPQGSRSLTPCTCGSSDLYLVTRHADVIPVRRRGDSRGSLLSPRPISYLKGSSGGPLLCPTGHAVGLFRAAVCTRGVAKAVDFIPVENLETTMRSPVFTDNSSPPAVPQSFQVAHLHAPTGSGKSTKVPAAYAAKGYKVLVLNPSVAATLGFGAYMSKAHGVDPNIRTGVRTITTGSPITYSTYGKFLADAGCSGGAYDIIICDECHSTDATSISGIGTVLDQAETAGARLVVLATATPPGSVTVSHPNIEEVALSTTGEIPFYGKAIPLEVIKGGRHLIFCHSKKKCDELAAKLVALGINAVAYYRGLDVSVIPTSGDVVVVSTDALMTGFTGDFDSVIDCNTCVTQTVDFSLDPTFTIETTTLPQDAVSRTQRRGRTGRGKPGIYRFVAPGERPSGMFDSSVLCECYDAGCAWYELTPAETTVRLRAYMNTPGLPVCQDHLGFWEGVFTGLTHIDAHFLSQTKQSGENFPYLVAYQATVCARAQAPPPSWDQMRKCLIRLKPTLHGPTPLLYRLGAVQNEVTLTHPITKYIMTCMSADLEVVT
In short: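 Full-length NS3 from E. coli (2 nM in assay) or baculovirus (3 nM) was precomplexed with excess NS4A-2 peptide, then preincubated 10 min at room temperature with serially diluted compounds starting at 50 microM. Reaction was started with RETS1 substrate at 8 μM before addition and read kinetically for 30 min (ex 335/em 495 nm). Four-parameter IC50s were converted to Ki by Cheng-Prusoff using Km 2.03 μM (E. coli) or 1.74 μM (BV).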

[2] = test system: HCV sub-genomic replicon in GS4.3 cells (HuH-7 hepatoma cells); assay: Quantitation by ELISA of Neomycin phosphotransferase II (NPTII) in the HCV sub-genomic replicon, GS4.3; assay type: cell-based, hepatitis C virus; conditions: Hepatitis C virus, Huh-7; GS4.3 cells, 72 h incubation, NPTII ELISA; read-out: Replicon EC50
Method: The HCV sub-genomic replicon (1377/NS3-3′, accession No. AJ242652), stably maintained in HuH-7 hepatoma cells, was created by Lohmann et al. Science 285: 110-113 (1999). The replicon-containing cell culture, designated GS4.3, was obtained from Dr. Christoph Seeger of the Institute for Cancer Research, Fox Chase Cancer Center, Philadelphia, Pa.
GS4.3 cells were maintained at 37° C., 5% CO2, in DMEM (Gibco 11965-092) supplemented with L-glutamine 200 mM (100×) (Gibco25030-081), non-essential amino acids (NEAA) (Biowhittaker 13-114E), heat-inactivated (HI) Fetal Bovine Serum (FBS) (Hyclone SH3007.03) and 750 μg/ml geneticin (G418) (Gibco 10131-035). Cells were sub-divided 1:3 or 4 every 2-3 days.
24 h prior to the assay, GS4.3 cells were collected, counted, and plated in 96-well plates (Costar 3585) at 7500 cells/well in 100 μl standard maintenance medium (above) and incubated in the conditions above. To initiate the assay, culture medium was removed, cells were washed once with PBS (Gibco 10010-023) and 90 μl Assay Medium (DMEM, L-glutamine, NEAA, 10% HI FBS, no G418) was added. Inhibitors were made as a 10× stock in Assay Medium, (3-fold dilutions from 10 μM to 56 pM final concentration, final DMSO concentration 1%), 10 μl were added to duplicate wells, plates were rocked to mix, and incubated as above for 72 h.
An NPTII Elisa kit was obtained from AGDIA, Inc. (Compound direct ELISA test system for Neomycin Phosphotransferase II, PSP 73000/4800). Manufacturer's instructions were followed, with some modifications. 10×PEB-1 lysis buffer was made up to include 500 μM PMSF (Sigma P7626, 50 mM stock in isopropanol). After 72 h incubation, cells were washed once with PBS and 150 μl PEB-1 with PMSF was added per well. Plates were agitated vigorously for 15 minutes, room temperature, then frozen at −70° C. Plates were thawed, lysates were mixed thoroughly, and 100 μl were applied to an NPTII Elisa plate. A standard curve was made. Lysate from DMSO-treated control cells was pooled, serially diluted with PEB-1 with PMSF, and applied to duplicate wells of the ELISA plate, in a range of initial lysate amount of 150 ul-2.5 ul. In addition, 100 μl buffer alone was applied in duplicate as a blank. Plates were sealed and gently agitated at room temperature for 2 h. Following capture incubation, the plates were washed 5×300 μl with PBS-T (0.5% Tween-20, PBS-T was supplied in the ELISA kit). For detection, a 1× dilution of enzyme conjugate diluent MRS-2 (5×) was made in PBS-T, into which 1:100 dilutions of enzyme conjugates A and B were added, as per instructions. Plates were resealed, and incubated with agitation, covered, room temperature, for 2 h. The washing was then repeated and 100 μl of room temperature TMB substrate was added. After approximately 30 minutes incubation (room temperature, agitation, covered), the reaction was stopped with 50 μl 3M sulfuric acid. Plates were read at 450 nm on a Molecular Devices Versamax plate reader.
Inhibitor effect was expressed as a percentage of DMSO-treated control signal, and inhibition curves were calculated using a 4-parameter equation: y=A+((B−A)/(1+((C/x)^D))), where C is half-maximal activity or EC50.

[3] = recombinant E. coli or Baculovirus full-length NS3 with NS4A-2, read-out: NS3-NS4 IC50

Row | Compound | IC50 [1, 3] [nM] | EC50 [2] [nM] | IC50 [1] [nM]
1 | O=C1N[C@]2(C(=O)NCC3CC3)C[C@H]2/C=C\CCCCC[C@H](Nc2c(N3CCC3)c(=O)c2=O)C(=O)N2C[C@H](OC(=O)N3Cc4cccc(F)c4C3)C[C@@H]12 [Compound 647] | < 100 | < 10000 | 
2 | CC(C)(C)OC(=O)N[C@H]1CCCCC/C=C\[C@@H]2C[C@@]2(C(=O)NC(=O)c2ccccc2)NC(=O)[C@@H]2C[C@@H](OC(=O)N3Cc4ccccc4C3)CN2C1=O [Compound 705] | < 100 | < 100 | 
3 | O=C1N[C@]2(C(=O)NS(=O)(=O)C3CC3)C[C@H]2/C=C\CCCCC[C@H](NCc2ccccc2C(F)(F)F)C(=O)N2C[C@H](OC(=O)N3Cc4cccc(F)c4C3)C[C@@H]12 [Compound 917] | < 100 | < 100 | 
4 | CC(C)(C)OC(=O)N[C@H]1CCCCC/C=C\[C@@H]2C[C@@]2(C(=O)NS(=O)(=O)C2CC2)NC(=O)[C@@H]2C[C@@H](OC(=O)N3Cc4cccc(Br)c4C3)CN2C1=O [Compound 160] | < 100 | < 100 | 
5 | CCCNC(=O)[C@@]12C[C@H]1/C=C\CCCCC[C@H](N)C(=O)N1C[C@H](OC(=O)N3Cc4cccc(F)c4C3)C[C@H]1C(=O)N2 [Compound 621] | > 10000 | > 10000 | 
6 | CN(C)S(=O)(=O)NC(=O)[C@@]12C[C@H]1/C=C\CCCCC[C@H](NC(=O)OC(C)(C)C)C(=O)N1C[C@H](OC(=O)N3Cc4cccc(Cl)c4C3)C[C@H]1C(=O)N2 [Compound 114] | < 100 | < 100 | 
7 | CC(C)(C)OC(=O)N[C@H]1CCCCC/C=C\[C@@H]2C[C@@]2(C(=O)NCc2cccc(C(=O)O)c2)NC(=O)[C@@H]2C[C@@H](OC(=O)N3Cc4cccc(F)c4C3)CN2C1=O [Compound 617] | < 100 | > 10000 | 
8 | O=C(CCC(F)(F)F)N[C@H]1CCCCC/C=C\[C@@H]2C[C@@]2(C(=O)O)NC(=O)[C@@H]2C[C@@H](OC(=O)N3Cc4cccc(F)c4C3)CN2C1=O [Compound 135] | < 100 | < 10000 | 
9 | CC(C)(C)OC(=O)N[C@H]1CCCCC/C=C\[C@@H]2C[C@@]2(C(=O)NS(=O)(=O)C2(Cc3ccccc3)CC2)NC(=O)[C@@H]2C[C@@H](OC(=O)N3Cc4ccccc4C3)CN2C1=O [Compound 101] | < 100 | < 100 | 
10 | CC(C)(C)OC(=O)N[C@H]1CCC(O)CC/C=C\[C@@H]2C[C@@]2(C(=O)O)NC(=O)[C@@H]2C[C@@H](OC(=O)N3Cc4cccc(F)c4C3)CN2C1=O (some centres unmarked) [Compound 1017] | < 1000 | > 10000 | 
11 | O=C1N[C@]2(C(=O)NS(=O)(=O)C3CC3)C[C@H]2/C=C\CCCCC[C@H](Nc2nc(-c3ccccc3)cs2)C(=O)N2C[C@H](OC(=O)N3Cc4cccc(F)c4C3)C[C@@H]12 [Compound 927, (2R,6S,13aS,14aR,16aS,Z)-14a-(cyclopropylsulfonylcarbamoyl)-5,16-dioxo-6-(4-phenylthiazol-2-ylamino)-1,2,3,5,6,7,8,9,10,11,13a,14,14a,15,16,16a-hexadecahydrocyclopropa[e]pyrrolo[1,2-a][1,4]diazacyclopentadecin-2-yl 4-fluoroisoindoline-2-carboxylate] | < 100 | < 100 | 
12 | CC(C)(C)OC(=O)N[C@H]1CCC(F)(F)CC/C=C\[C@@H]2C[C@@]2(C(=O)NS(=O)(=O)C2CC2)NC(=O)[C@@H]2C[C@@H](OC(=O)N3Cc4cccc(F)c4C3)CN2C1=O [Compound 1002] | < 100 | < 100 | 
13 | CCOC1(S(=O)(=O)NC(=O)[C@@]23C[C@H]2/C=C\CCCCC[C@H](NC(=O)OC(C)(C)C)C(=O)N2C[C@H](OC(=O)N4Cc5cccc(Cl)c5C4)C[C@H]2C(=O)N3)CC1 [Compound 165] | < 100 | < 100 | 
14 | CC(C)(C)OC(=O)N[C@H]1CCCCC/C=C\[C@@H]2C[C@@]2(C(=O)NCCF)NC(=O)[C@@H]2C[C@@H](OC(=O)N3Cc4cccc(F)c4C3)CN2C1=O [Compound 611] | < 1000 | < 10000 | 
15 | N[C@H]1CCCCC/C=C\[C@@H]2C[C@@]2(C(=O)NS(=O)(=O)N2CCC(F)(F)C2)NC(=O)[C@@H]2C[C@@H](OC(=O)N3Cc4cccc(Cl)c4C3)CN2C1=O [Compound 222] |  | < 10000 | < 100
16 | Cc1cc(CN[C@H]2CCCCC/C=C\[C@@H]3C[C@@]3(C(=O)NS(=O)(=O)C3CC3)NC(=O)[C@@H]3C[C@@H](OC(=O)N4Cc5cccc(F)c5C4)CN3C2=O)oc1C [Compound 915] | < 100 | < 100 | 
17 | N[C@H]1CCCCC/C=C\[C@@H]2C[C@@]2(C(=O)NS(=O)(=O)N2CCCC2)NC(=O)[C@@H]2C[C@@H](OC(=O)N3Cc4cccc(Cl)c4C3)CN2C1=O [Compound 220] |  | < 1000 | < 100
18 | CC(C)(C)OC(=O)N[C@H]1CCCCC/C=C\[C@@H]2C[C@@]2(C(=O)NC#N)NC(=O)C2C[C@@H](OC(=O)N3Cc4cccc(Cl)c4C3)CN2C1=O (some centres unmarked) [Compound 641] | < 100 | < 10000 | 
19 | N[C@H]1CCCCC/C=C\[C@@H]2C[C@@]2(C(=O)NCC2CC2)NC(=O)[C@@H]2C[C@@H](OC(=O)N3Cc4cccc(F)c4C3)CN2C1=O [Compound 622] | < 10000 | < 10000 | 
20 | COc1cc2c(cc1OC)CN(C(=O)O[C@@H]1C[C@H]3C(=O)N[C@]4(C(=O)NS(=O)(=O)N5CCOCC5)C[C@H]4/C=C\CCCCC[C@H](NC(=O)OC(C)(C)C)C(=O)N3C1)CC2 [Compound 208] | < 100 | < 10000 | 
21 | CC(C)(C)OC(=O)N[C@H]1CCCCC/C=C\[C@@H]2C[C@@]2(C(=O)NC(=O)N2CCOCC2)NC(=O)[C@@H]2C[C@@H](OC(=O)N3Cc4cccc(F)c4C3)CN2C1=O [Compound 234] | < 100 | < 100 | 
22 | Cc1sc(N[C@H]2CCCCC/C=C\[C@@H]3C[C@@]3(C(=O)NS(=O)(=O)C3CC3)NC(=O)[C@@H]3C[C@@H](OC(=O)N4Cc5cccc(F)c5C4)CN3C2=O)nc1-c1ccccc1 [Compound 928] | < 100 | < 100 | 
23 | N[C@H]1CCCCC/C=C\[C@@H]2C[C@@]2(C(=O)NS(=O)(=O)c2ccc(Cl)s2)NC(=O)[C@@H]2C[C@@H](OC(=O)N3Cc4cccc(Cl)c4C3)CN2C1=O [Compound 168] |  | < 10000 | < 100
24 | Cc1ccc(CN[C@H]2CCCCC/C=C\[C@@H]3C[C@@]3(C(=O)NC#N)NC(=O)C3C[C@@H](OC(=O)N4Cc5cccc(F)c5C4)CN3C2=O)o1 (some centres unmarked) [Compound 643] | < 1000 | > 10000 | 
25 | CNc1c(NC(=O)[C@@]23C[C@H]2/C=C\CCCCC[C@H](NC(=O)OC(C)(C)C)C(=O)N2C[C@H](OC(=O)N4Cc5cccc(F)c5C4)C[C@H]2C(=O)N3)c(=O)c1=O [Compound 646] | < 1000 | > 10000 | 
26 | CC(C)(C)OC(=O)N[C@H]1CCCCC/C=C\[C@@H]2C[C@@]2(C(=O)NS(=O)(=O)C2CC2)NC(=O)[C@@H]2C[C@@H](OC(=O)N3Cc4cccc(Cl)c4C3)CN2C1=O [Compound 115] | < 100 | < 100 | 
27 | CC(C)(C)OC(=O)N[C@H]1CCCCC/C=C\[C@@H]2C[C@@]2(C(=O)O)NC(=O)[C@@H]2C[C@@H](OC(=O)N3Cc4ccc(OCCn5cccn5)cc4C3)CN2C1=O [Compound 130] | < 100 | < 10000 | 
28 | CC(NC(=O)[C@@]12C[C@H]1/C=C\CCCCC[C@H](NC(=O)OC(C)(C)C)C(=O)N1C[C@H](OC(=O)N3Cc4cccc(F)c4C3)C[C@H]1C(=O)N2)c1ccncc1 (some centres unmarked) [Compound 618] | < 100 | < 10000 | 
